IC50 data for 23 compounds are collected here from patent US9174980B2, “Heterocyclic compounds as inhibitors of leukotriene production” (Boehringer Ingelheim International GmbH, priority 2012, dated 2015).

Assay [1] has as its target T1, recombinant human FLAP protein (Homo sapiens, UniProt P20292).
T1 construct: made in house; host or cells: Sf9 insect cells (membrane fraction, 100,000 x g pellet)
T1 sequence (P20292 1-161): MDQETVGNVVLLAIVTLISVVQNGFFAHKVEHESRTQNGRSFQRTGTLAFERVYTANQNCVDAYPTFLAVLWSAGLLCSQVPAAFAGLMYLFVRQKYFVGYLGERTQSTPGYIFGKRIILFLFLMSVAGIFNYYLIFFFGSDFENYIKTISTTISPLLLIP
The assay can be described thus: FLAP binding assay (Scintillation Proximity Assay, displacement of [125I]L-691,831). The settings on record: read-out: Human FLAP SPA Binding (IC50 nM). The procedure:
Compounds are assessed for the ability to bind to FLAP in a binding assay that measures compound-specific displacement of an iodinated (^125I) FLAP inhibitor via a Scintillation Proximity Assay format (adapted from S. Charleson et al., Mol. Pharmacol., 1992, 41, 873-879).
Cell pellets produced from sf9 insect cells expressing recombinant human FLAP protein are resuspended in buffer A [15 mM Tris-HCl (pH 7.5), 2 mM MgCl2, 0.3 mM EDTA, 1 mM PMSF]. The cells are lysed with a Dounce homogenizer and the material is centrifuged at 10,000×g for 10 minutes. The supernatant is then collected and centrifuged at 100,000×g for 60 minutes. To prepare membrane protein for an assay, an aliquot of the 100,000×g pellet is resuspended in 1 ml of buffer A, Dounce homogenized, and finally subjected to polytron mixing (30 seconds). Membrane protein (25 μl, 5 μg) is mixed with WGA SPA beads (Amersham) and stirred for 1 h. To an assay plate (Perkin Elmer FlexiPlate) is added 25 μl of test compound prepared in Binding buffer [100 mM Tris (pH 7.5), 140 mM NaCl, 5% glycerol, 2 mM EDTA, 0.5 mM TCEP, 0.05% Tween 20], 25 μl of [^125I]L-691,831 (an iodinated analog of MK-591, Charleson et al. Mol. Pharmacol., 41, 873-879, 1992) and finally 50 μl of the bead/protein mixture. (final concentrations: beads, 200 μg/well; protein, 5 μg/well; [^125I] probe, 0.08 nM/well (17 nCi/well). The plates are shaken for 2 h before reading on a Microbeta plate reader. Non-specific binding is determined by the addition of 10 μM cold L-691,831 compound.
For orientation: In a scintillation proximity assay essentially only radioactivity close to the scintillant gives light.

Assay [2] deals with synthesis of LTB4 in human whole blood. Nature of the assay: Human whole blood assay (calcimycin-stimulated LTB4 synthesis). It is filed as cell-based. The note with it: Homo sapiens; read-out: Human Whole Blood LTB4 Assay for FLAP (IC50 nM). On the procedure: Compounds are additionally tested in a human whole blood assay to determine their ability to inhibit the synthesis of LTB4 in a cellular system. Compounds are combined with heparinized human whole blood and incubated for 15 minutes at 37° C. Calcimycin (20 μM final, prepared in phosphate-buffered saline, pH 7.4) is then added and the mixture is incubated for another 30 minutes at 37° C. The samples are centrifuged for 5 min at low speed (1500×g) and the plasma layer is removed. Plasma LTB4 concentrations are then measured using an antibody-based homogenous time-resolved fluorescence method (CisBio, Bedford, Mass.).

Consider `CN(C)CCn1cc(-c2cc([C@@](C)(c3ccc(-c4cnc(N)nc4)cc3)C3CC3)no2)cn1` [Example 26, 5-{4-[(1R)-1-cyclopropyl-1-(5-{1-[2-(dimethylamino)ethyl]-1H-pyrazol-4-yl}-1,2-oxazol-3-yl)ethyl]phenyl}pyrimidin-2-amine], for which the IC50 in assay [1] was 4.6 nM; in assay [2] it was 39 nM.

As to `COc1cncc(-c2ccc(C(C)(c3cn(Cc4ccccn4)c4ccccc34)C(C)C)cc2)c1` (stereo not shown) [Example 27, 3-{2-[4-(5-methoxypyridin-3-yl)phenyl]-3-methylbutan-2-yl}-1-(pyridin-2-ylmethyl)-1H-indole], the IC50 in assay [1] turned out to be 20 nM; in assay [2], 1800 nM.

Turning to `CC(C)C(C)(c1ccc(-c2cnc(N)nc2)cc1)c1cn(Cc2ccccn2)c2ccccc12` (stereo not shown) [Example 28, 5-(4-{3-methyl-2-[1-(pyridin-2-ylmethyl)-1H-indol-3-yl]butan-2-yl}phenyl)pyrimidin-2-amine], the figures for the half-maximal inhibitory concentration (IC50) in assay [1] and in assay [2] were 3.3 nM and 610 nM, respectively.

For `CC(C)C(C)(c1ccc(-c2cnc(N)nc2)cc1)c1cn(Cc2ccc(Cl)cc2)c2ccccc12` (stereo not shown) [Example 29, 5-(4-{2-[1-(4-chlorobenzyl)-1H-indol-3-yl]-3-methylbutan-2-yl}phenyl)pyrimidin-2-amine], the IC50 in assay [1] was 5.1 nM; in assay [2], 2700 nM.

With `CN(C)CCn1cc(-c2cc([C@](C)(c3ccc(-c4cnc(N)nc4)cc3)C3CC3)no2)cn1` [Example 30, 5-{4-[(1S)-1-cyclopropyl-1-(5-{1-[2-(dimethylamino)ethyl]-1H-pyrazol-4-yl}-1,2-oxazol-3-yl)ethyl]phenyl}pyrimidin-2-amine], the values for the half-inhibitory concentration (IC50) in assay [1] and in assay [2] were 330 nM and 1200 nM, respectively.

Regarding `CC(C)C(C)(c1ccc(-c2cnc(N)nc2)cc1)c1cn(C)c2ccc(F)cc12` (stereo not shown) [Example 31, 5-{4-[2-(5-fluoro-1-methyl-1H-indol-3-yl)-3-methylbutan-2-yl]phenyl}pyrimidin-2-amine], the IC50 in assay [1] came out at 7.1 nM; in assay [2], 1200 nM.

For the compound `CC(C)C(C)(c1ccc(-c2cnc(N)nc2)cc1)c1cn(C)c2ccccc12` (stereo not shown) [Example 32, 5-{4-[3-methyl-2-(1-methyl-1H-indol-3-yl)butan-2-yl]phenyl}pyrimidin-2-amine], the IC50 in assay [1] stood at 3.3 nM; in assay [2], 650 nM.

On to `Nc1ncc(-c2ccc(C3(c4c[nH]c5ccccc45)CCOCC3)cc2)cn1` [Example 33, 5-{4-[4-(1H-indol-3-yl)tetrahydro-2H-pyran-4-yl]phenyl}pyrimidin-2-amine], for which the IC50 is 290 nM in assay [1] and over 5000 nM in assay [2].

Take `CC(C)C(C)(c1ccc(-c2cnc(N)nc2)cc1)c1cn(Cc2ccc(Cl)cc2)c2ncccc12` (stereo not shown) [Example 34, 5-(4-{2-[1-(4-chlorobenzyl)-1H-pyrrolo[2,3-b]pyridin-3-yl]-3-methylbutan-2-yl}phenyl)pyrimidin-2-amine]: the 50% inhibitory concentration (IC50) in assay [1] is 3.4 nM; in assay [2] it was 460 nM.

With `Nc1ncc(-c2ccc(C3(c4cn(Cc5ccccn5)c5ccccc45)CCOCC3)cc2)cn1` [Example 35, 5-(4-{4-[1-(pyridin-2-ylmethyl)-1H-indol-3-yl]tetrahydro-2H-pyran-4-yl}phenyl)pyrimidin-2-amine], the values for the half-inhibitory concentration (IC50) in assay [1] and in assay [2] were 150 nM and over 5000 nM, respectively.

Consider `CC(C)C(C)(c1ccc(OCc2ccccn2)cc1)c1cn(C)c2cc(C(=O)O)ccc12` (stereo not shown) [Example 36, 23-[1,2-dimethyl-1-[4-(2-pyridylmethoxy)phenyl]propyl]-1-methyl-indole-6-carboxylic acid], for which the IC50 was determined as 1.8 nM in assay [1] and 1900 nM in assay [2].

Turning to `CC(C)C(C)(c1ccc(OCc2ccccn2)cc1)c1cn(C)c2cc(C(=O)Nc3cccnn3)ccc12` (stereo not shown) [Example 37, 3-[1,2-dimethyl-1-[4-(2-pyridylmethoxy)phenyl]propyl]-1-methyl-N-pyridazin-3-yl-indole-6-carboxamide], the IC50 in assay [1] amounted to 1.4 nM; in assay [2], 150 nM.

Take `CC(C)C(C)(c1ccc(OCc2ccccn2)cc1)c1cn(C)c2cc(C(N)=O)ccc12` (stereo not shown) [Example 38, 3-[1,2-dimethyl-1-[4-(2-pyridylmethoxy)phenyl]propyl]-1-methyl-indole-6-carboxamide]: the IC50 in assay [1] is 1.4 nM; in assay [2], 240 nM.

Consider `CC(C)C(C)(c1ccc(-c2cnc(N)nc2)cc1)c1cn(C)c2ncccc12` (stereo not shown) [Example 39, 5-{4-[3-methyl-2-(1-methyl-1H-pyrrolo[2,3-b]pyridin-3-yl)butan-2-yl]phenyl}pyrimidin-2-amine], for which the IC50 in assay [1] worked out at 3.3 nM; in assay [2], 290 nM.

As to `CC(C)C(C)(c1ccc(-c2cnc(N)nc2)cc1)c1cn(Cc2ccccn2)c2cccc(F)c12` (stereo not shown) [Example 40, 5-(4-{2-[4-fluoro-1-(pyridin-2-ylmethyl)-1H-indol-3-yl]-3-methylbutan-2-yl}phenyl)pyrimidin-2-amine], the IC50 in assay [1] worked out at 2.6 nM; in assay [2], 540 nM.

With `CC(C)C(C)(c1ccc(-c2cnc(N)nc2)cc1)c1cn(Cc2ccccn2)c2c(F)cccc12` (stereo not shown) [Example 41, 5-(4-{2-[7-fluoro-1-(pyridin-2-ylmethyl)-1H-indol-3-yl]-3-methylbutan-2-yl}phenyl)pyrimidin-2-amine], the IC50 in assay [1] was 3.4 nM; in assay [2], 1300 nM.

Take `CC(C)C(C)(c1ccc(-c2cnc(N)nc2)cc1)c1c[nH]c2ccccc12` (stereo not shown) [Example 42, 5-{4-[2-(1H-indol-3-yl)-3-methylbutan-2-yl]phenyl}pyrimidin-2-amine]: the IC50 was found to be 2.5 nM in assay [1] and 170 nM in assay [2].

For `Cc1cn(C(C)(c2ccc(-c3cnc(N)nc3)cc2)C(C)C)c2ccccc12` (stereo not shown) [Example 43, 5-{4-[3-methyl-2-(3-methyl-1H-indol-1-yl)butan-2-yl]phenyl}pyrimidin-2-amine], the IC50 in assay [1] turned out to be 30 nM; in assay [2], 1500 nM.

Regarding `Cn1nc(C(c2ccc(-c3cnc(N)nc3)cc2)C(C)(C)C)c2ccccc21` (stereo not shown) [Example 44, 5-[4-[2,2-dimethyl-1-(1-methylindazol-3-yl)propyl]phenyl]pyrimidin-2-amine], the values for the IC50 in assay [1] and in assay [2] were 21 nM and over 5000 nM, respectively.

Consider `COc1cccc2c(C(C)(c3ccc(-c4cnc(N)nc4)cc3)C(C)C)c[nH]c12` (stereo not shown) [Example 45, 5-{4-[2-(7-methoxy-1H-indol-3-yl)-3-methylbutan-2-yl]phenyl}pyrimidin-2-amine], for which the results for the IC50 in assay [1] and in assay [2] were 1.4 nM and 260 nM, respectively.

As to `CC(C)C(C)(c1ccc(-c2cnc(N)nc2)cc1)c1cn(CC(=O)O)c2ncccc12` (stereo not shown) [Example 47, (3-{2-[4-(2-aminopyrimidin-5-yl)phenyl]-3-methylbutan-2-yl}-1H-pyrrolo[2,3-b]pyridin-1-yl)acetic acid], the half-maximal inhibitory concentration (IC50) is 4.6 nM in assay [1] and over 5000 nM in assay [2].

With `CC(C)C(C)(c1ccc(-c2cnc(N)nc2)cc1)c1cn(Cc2ccccn2)c2cc(F)ccc12` (stereo not shown) [Example 49, 5-(4-{2-[6-fluoro-1-(pyridin-2-ylmethyl)-1H-indol-3-yl]-3-methylbutan-2-yl}phenyl)pyrimidin-2-amine], the IC50 stood at 2 nM in assay [1] and 810 nM in assay [2].

As to `COc1cccc2c1c(C(C)(c1ccc(-c3cnc(N)nc3)cc1)C(C)C)cn2Cc1ccccn1` (stereo not shown) [Example 50, 5-(4-{2-[4-methoxy-1-(pyridin-2-ylmethyl)-1H-indol-3-yl]-3-methylbutan-2-yl}phenyl)pyrimidin-2-amine], the half-inhibitory concentration (IC50) was 260 nM in assay [1] and over 5000 nM in assay [2].

Usually IC50 stands for the concentration needed to halve the response being measured.
